# Assay results published in patent US11872230B2, “Method of treating a methionine-dependent cancer” (Agency for Science, Technology and Research, priority 2018, dated 2024).
# Tested on: lung patient-derived xenograft (PDX) cells A139, A233
# Assay: Patient-derived lung tumor xenografts (PDX) in NSG mice
# Format: in vivo
# Conditions: two PDX lines, FIDAS5 40 mg/kg for three days after implantation, six weeks
# Description: 5×10^5 single cells were mixed in a 1:1 mixture of serum free DMEM/F12 and Matrigel (BD) and injected subcutaneously into the flanks of 4-6 week old male and female NOD.Cg-Prkdc^scid Il2rg^tm1wjl SzJ (Jackson Laboratories). About 6 weeks later, or when tumor sizes exceed 2 cm in length, mice were sacrificed and tumors harvested for analysis. All animal experiments were approved by the Agency for Science Technology and Research Singapore—Biological Resource Centre. Mice were randomized by sex.
# Since FIDAS5 appeared to more specifically disrupt the methionine cycle and inhibit cellular methylation activities compared to D9, it was sought to test whether its systemic delivery could impact the tumorigenic potential of TS cells. These highly tumorigenic cells were first subcutaneously implanted into NSG mice and FIDAS5 (40 mg/kg) or corn oil carrier was immediately administered via intraperitoneal injection for three consecutive days. After 6 weeks, mice transiently treated with FIDAS5 produced tumors that were much smaller than carrier-treated controls. […] To exclude the possibility of general cytotoxicity associated with the inhibitor on TS cells, TS cell-implanted NSG mice were treated with cisplatin (4 mg/kg), a frontline chemotherapeutic agent that broadly target bulk cancer cells in NSCLC tumors, in the same manner (FIG. 5i). […]
structure (smiles),measurement,value
CNc1ccc(/C=C/c2c(F)cccc2Cl)cc1 [FIDAS5],xenograft tumors smaller relative to sham-treated mice,at least 6 fold
